Results reported in patent US20060094880A9, “Synthetic process for trans-aminocyclohexyl ether compounds” (priority 2003, published 2006).

Test system: sustained AF maintained during continuous vagal nerve stimulation
Assay: Canine vagal-AF model: termination of sustained AF during continuous vagal nerve stimulation
Assay type: in vivo, Mongrel dogs
Method: St.-Georges et al., 1997). Dogs are ventilated mechanically with room air supplemented with oxygen via an endotracheal tube at 20 to 25 breaths/minute with a tidal volume obtained from a nomogram. […] Catheters are inserted into the femoral artery for blood pressure recording and blood gas measurement, and into both femoral veins for drug administration and venous sampling. […] Body temperature is maintained at 37-40° C. with a heating blanket. The heart is exposed via a medial thoracotomy and a pericardial cradle is created. […] Drug effects to terminate sustained AF maintained during continuous vagal nerve stimulation are assessed. […] The vagal stimulation voltage is adjusted under control conditions, and then readjusted after each treatment to maintain the same bradycardic effect. […] Diastolic threshold and ERP are determined in duplicate and averaged to give a single value. […] The interval from the stimulus artefact and the peak of the local electrogram is measured as an index of conduction velocity. […] The stimulus voltage-heart rate relationship for vagal nerve stimulation is determined under control conditions in most experiments. […] After the termination of AF, the diastolic threshold and ERP of the atrium and ventricle are determined. […] Group data are expressed as the mean ±SEM. […]

## O=C(NCC1CCCCN1)c1cc(OCC(F)(F)F)ccc1OCC(F)(F)F (stereo not shown) [Flecainide]
  Effectiveness as a control in the present study: comparable to that previously reported
